Results reported in PubChem BioAssay (NCI).
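Abbreviation: GI50, concentration required for 50% inhibition of growth. TGI marks complete inhibition of growth.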

Assays:
Test in all cases: NCI tumour cell line growth inhibition, 384-well format
RPMI-8226 leukemia = test system: RPMI-8226 leukemia
HT29 colon = test system: HT29 colon
LOX IMVI melanoma = test system: LOX IMVI melanoma
OVCAR-3 ovarian = test system: OVCAR-3 ovarian
A498 renal = test system: A498 renal
A549 NSCLC = test system: A549 NSCLC
SNB-19 CNS = test system: SNB-19 CNS
SK-MEL-5 melanoma = test system: SK-MEL-5 melanoma
U251 glioblastoma = test system: U251 glioblastoma
HCT-15 colon = test system: HCT-15 colon
NCI-H522 lung = test system: NCI-H522 lung
MCF7 breast = test system: MCF7 breast
HCC-2998 colon = test system: HCC-2998 colon
SNB-75 CNS = test system: SNB-75 CNS
ACHN renal = test system: ACHN renal
HOP-92 NSCLC = test system: HOP-92 NSCLC
MALME-3M melanoma = test system: MALME-3M melanoma
PC-3 prostate = test system: PC-3 prostate
MDA-MB-468 breast = test system: MDA-MB-468 breast
CCRF-CEM leukemia = test system: CCRF-CEM leukemia
M14 melanoma = test system: M14 melanoma
786-0 renal = test system: 786-0 renal
RXF 393 renal = test system: RXF 393 renal
SF-268 CNS = test system: SF-268 CNS
MDA-MB-435 melanoma = test system: MDA-MB-435 melanoma
HCT-116 colon = test system: HCT-116 colon
SK-MEL-28 melanoma = test system: SK-MEL-28 melanoma
NCI/ADR-RES ovarian = test system: NCI/ADR-RES ovarian
NCI-H460 NSCLC = test system: NCI-H460 NSCLC
IGROV1 ovarian = test system: IGROV1 ovarian
SK-OV-3 ovarian = test system: SK-OV-3 ovarian
TK-10 renal = test system: TK-10 renal
NCI-H226 lung = test system: NCI-H226 lung
SN12C renal = test system: SN12C renal
CAKI-1 renal = test system: CAKI-1 renal
MOLT-4 leukemia = test system: MOLT-4 leukemia
SF-295 CNS = test system: SF-295 CNS
OVCAR-8 ovarian = test system: OVCAR-8 ovarian
UO-31 renal = test system: UO-31 renal
KM12 colon = test system: KM12 colon
EKVX NSCLC = test system: EKVX NSCLC
OVCAR-4 ovarian = test system: OVCAR-4 ovarian
OVCAR-5 ovarian = test system: OVCAR-5 ovarian
HL-60(TB) leukemia = test system: HL-60(TB) leukemia
T-47D breast = test system: T-47D breast
DU-145 prostate = test system: DU-145 prostate
BT-549 breast = test system: BT-549 breast
SW-620 colon = test system: SW-620 colon
HOP-62 NSCLC = test system: HOP-62 NSCLC
NCI-H322M lung = test system: NCI-H322M lung
SR leukemia = test system: SR leukemia
COLO 205 colon = test system: COLO 205 colon
NCI-H23 lung = test system: NCI-H23 lung
SF-539 CNS = test system: SF-539 CNS
MDA-MB-231 breast = test system: MDA-MB-231 breast
K-562 leukemia = test system: K-562 leukemia
HS 578T breast = test system: HS 578T breast
UACC-257 melanoma = test system: UACC-257 melanoma

CN1CCN(c2ccc3nc(-c4c(N)c5c(F)cccc5[nH]c4=O)[nH]c3c2)CC1
GI50 (RPMI-8226 leukemia): 0.329 µM | TGI (RPMI-8226 leukemia): 1.24 µM | GI50 (HT29 colon): 1.24 µM | TGI (HT29 colon): 2.55 µM | GI50 (LOX IMVI melanoma): 0.938 µM | TGI (LOX IMVI melanoma): 2.13 µM | GI50 (OVCAR-3 ovarian): 1.06 µM | TGI (OVCAR-3 ovarian): 2.26 µM | GI50 (A498 renal): 0.472 µM | TGI (A498 renal): 1.77 µM | GI50 (A549 NSCLC): 0.72 µM | TGI (A549 NSCLC): 1.99 µM | GI50 (SNB-19 CNS): 1.48 µM | TGI (SNB-19 CNS): 3.12 µM | GI50 (SK-MEL-5 melanoma): 1.08 µM | TGI (SK-MEL-5 melanoma): 2.28 µM | GI50 (U251 glioblastoma): 0.714 µM | TGI (U251 glioblastoma): 2.01 µM | GI50 (HCT-15 colon): 0.417 µM | TGI (HCT-15 colon): 1.63 µM | GI50 (NCI-H522 lung): 0.99 µM | TGI (NCI-H522 lung): 2.16 µM | GI50 (MCF7 breast): 1.04 µM | TGI (MCF7 breast): 2.23 µM | GI50 (HCC-2998 colon): 0.744 µM | TGI (HCC-2998 colon): 2.02 µM | GI50 (SNB-75 CNS): 0.493 µM | TGI (SNB-75 CNS): 1.8 µM | GI50 (ACHN renal): 0.344 µM | TGI (ACHN renal): 1.5 µM | GI50 (HOP-92 NSCLC): 0.645 µM | TGI (HOP-92 NSCLC): 2 µM | GI50 (MALME-3M melanoma): 0.495 µM | TGI (MALME-3M melanoma): 1.67 µM | GI50 (PC-3 prostate): 1.08 µM | TGI (PC-3 prostate): 3.83 µM | GI50 (MDA-MB-468 breast): 1.08 µM | TGI (MDA-MB-468 breast): 2.32 µM | GI50 (CCRF-CEM leukemia): 0.369 µM | TGI (CCRF-CEM leukemia): 1.08 µM | GI50 (M14 melanoma): 0.34 µM | TGI (M14 melanoma): 1.51 µM | GI50 ([…]-0 renal): 1.07 µM | TGI (786-0 renal): 2.3 µM | GI50 (RXF 393 renal): 0.34 µM | TGI (RXF 393 renal): 1.37 µM | GI50 (SF-268 CNS): 1.25 µM | TGI (SF-268 CNS): 2.83 µM | GI50 (MDA-MB-435 melanoma): 1.28 µM | TGI (MDA-MB-435 melanoma): 2.56 µM | GI50 (HCT-116 colon): 0.624 µM | TGI (HCT-116 colon): 1.9 µM | GI50 (SK-MEL-28 melanoma): 1.78 µM | TGI (SK-MEL-28 melanoma): 3.17 µM | GI50 (NCI/ADR-RES ovarian): 1.61 µM | TGI (NCI/ADR-RES ovarian): 3.06 µM | GI50 (NCI-H460 NSCLC): 0.39 µM | TGI (NCI-H460 NSCLC): 1.43 µM | GI50 (IGROV1 ovarian): 0.276 µM | TGI (IGROV1 ovarian): 1.35 µM | GI50 (SK-OV-3 ovarian): 0.325 µM | TGI (SK-OV-3 ovarian): 1.47 µM | GI50 (TK-10 renal): 1.25 µM | TGI (TK-10 renal): 3.22 µM | GI50 (NCI-H226 lung): 0.545 µM | TGI (NCI-H226 lung): 1.98 µM | GI50 (SN12C renal): 0.442 µM | TGI (SN12C renal): 1.59 µM | GI50 (CAKI-1 renal): 0.265 µM | TGI (CAKI-1 renal): 1.32 µM | GI50 (MOLT-4 leukemia): 0.171 µM | TGI (MOLT-4 leukemia): 0.31 µM | GI50 (SF-295 CNS): 1.33 µM | TGI (SF-295 CNS): 2.61 µM | GI50 (OVCAR-8 ovarian): 1.24 µM | TGI (OVCAR-8 ovarian): 2.53 µM | GI50 (UO-31 renal): 0.397 µM | TGI (UO-31 renal): 1.6 µM | GI50 (KM12 colon): 0.0331 µM | TGI (KM12 colon): 1.45 µM | GI50 (EKVX NSCLC): 1.04 µM | TGI (EKVX NSCLC): 2.39 µM | GI50 (OVCAR-4 ovarian): 1.53 µM | TGI (OVCAR-4 ovarian): 2.96 µM | GI50 (OVCAR-5 ovarian): 1.4 µM | TGI (OVCAR-5 ovarian): 3.58 µM | GI50 (HL-60(TB) leukemia): 0.357 µM | TGI (HL-60(TB) leukemia): 1.29 µM | GI50 (T-47D breast): 1.7 µM | TGI (T-47D breast): 3.1 µM | GI50 (DU-145 prostate): 0.779 µM | TGI (DU-145 prostate): 2.1 µM | GI50 (BT-549 breast): 0.451 µM | TGI (BT-549 breast): 1.7 µM | GI50 (SW-620 colon): 0.476 µM | TGI (SW-620 colon): 1.64 µM | GI50 (HOP-62 NSCLC): 1.08 µM | TGI (HOP-62 NSCLC): 2.32 µM | GI50 (NCI-H322M lung): 1.15 µM | TGI (NCI-H322M lung): 2.9 µM | GI50 (SR leukemia): 0.17 µM | TGI (SR leukemia): 0.337 µM | GI50 (COLO 205 colon): 1.01 µM | TGI (COLO 205 colon): 2.17 µM | GI50 (NCI-H23 lung): 1.15 µM | TGI (NCI-H23 lung): 2.44 µM | GI50 (SF-539 CNS): 0.293 µM | TGI (SF-539 CNS): 1.16 µM | GI50 (MDA-MB-231 breast): 1.84 µM | TGI (MDA-MB-231 breast): 4.05 µM | GI50 (K-562 leukemia): 0.441 µM | TGI (K-562 leukemia): 1.54 µM | GI50 (HS 578T breast): 0.358 µM | TGI (HS 578T breast): 1.5 µM | GI50 (UACC-257 melanoma): 1.15 µM | TGI (UACC-257 melanoma): 2.38 µM
